Source: paper PMC12383022, “Discovery of a Novel Antimicrobial Peptide from Paenibacillus sp. Na14 with Potent Activity Against Gram-Negative Bacteria and Genomic Insights into Its Biosynthetic Pathway” (Antibiotics, 2025)
Where two headings read alike, the source gives them in different places. Where no end group is shown, it is not given here.

How the values were obtained:
P. aeruginosa TISTR 357 [1] = type: cell-based, Pseudomonas aeruginosa; settings: TISTR 357, 24 h
Experimental: (§1) A bacterial suspension was prepared by adjusting its turbidity at OD 625 nm to 0.1 and subsequently made a 20-fold dilution using Cation-Adjusted Mueller–Hinton broth (CAHMB) as a diluent. […] The diluted cell suspension (10 µL) was added to each well, and the plates were incubated at 37 °C for 24 h. The CAMHB alone was used as a negative control, while CAMHB containing colistin or vancomycin served as a positive control.

E. coli TISTR 887 [2] = test: Time–kill assay; type: cell-based, Escherichia coli
Experimental: (§2) The cultures were diluted 20-fold using CAMHB. […] The diluted bacterial suspension (10 μL) was mixed into each well before incubating the plates at 37 °C. At predetermined time points, 100 μL of either diluted or undiluted samples from each well were plated on MH agar and incubated at 37 °C for 24 h. Bacterial viability was assessed by colony counting and expressed as log CFU/mL [56].

P. aeruginosa TISTR 357 [3] = test: Time–kill assay; type: cell-based, Pseudomonas aeruginosa
Experimental: as §2

K. pneumoniae TISTR 1383 [4] = settings: agar well diffusion vs untreated control, mean ± SD, three independent experiments
Experimental: (§3) The purified Na14 AMP was prepared at a concentration of 10× MIC. Thermal stability was assessed by incubating the peptide at 30 °C, 50 °C, 70 °C, and 90 °C for 3 h. pH stability was evaluated by adjusting the peptide solution to pH 3, 5, 7, 9, and 11 using 1 N HCl or 1 N NaOH, followed by incubation at 37 °C for 3 h and subsequent neutralization to the original pH. […] The residual antimicrobial activity of each treatment condition was determined using an agar well diffusion assay against E. coli TISTR 887, P. aeruginosa TISTR 357, and K. pneumoniae TISTR 1383 to cross-validate efficacy across multiple pathogens. The untreated peptide served as a control. Statistical significance was analyzed using one-way ANOVA, with comparisons to the control group considered significant at p-value < 0.05. The results are presented as the percentage of residual antimicrobial activity.

K. pneumoniae TISTR 1383 [5] = test: Time–kill assay; type: cell-based, Klebsiella pneumoniae
Experimental: as §2

E. coli TISTR 887 [6] = test: SDS-PAGE gel overlay inhibition assay; type: cell-based, Escherichia coli; settings: 15% SDS-PAGE gel overlaid with soft agar containing E. coli TISTR 887; at the position of the peptide band
Experimental: The peptides ([…]) were subjected to analysis using a 15% sodium dodecyl sulfate-polyacrylamide gel electrophoresis (SDS-PAGE). The gel was electrophoresed at a constant voltage of 100 V. One half of the gel was stained using Coomassie brilliant blue G-250 to visualize protein bands, with a molecular weight marker included to facilitate band position comparison. The remaining half was fixed in a solution containing 5% acetic acid and 25% methanol for 30 min, followed by a 3 h wash with distilled water. Subsequently, 18 mL of soft MH agar, including E. coli TISTR 887, was overlaid onto the gel to assess antimicrobial activity by observing inhibition zones after incubation at 37 °C for 24 h.

[7] = test system: E. coli TISTR 887, P. aeruginosa TISTR 357, K. pneumoniae TISTR 1383; test: Time–kill kinetic assay, statement for all tested strains; type: cell-based; settings: peptide at 1× MIC
Experimental: as §2

E. coli TISTR 887 [8] = type: cell-based, Escherichia coli; settings: TISTR 887, 24 h
Experimental: as §1

E. coli TISTR 887 [9] = test: Antimicrobial activity of purification fractions (arbitrary units, two-fold dilutions, agar well diffusion); type: cell-based, Escherichia coli; settings: against E. coli TISTR 887
Experimental: Single colonies of the Na14 isolate were resuspended in 0.9% NaCl solution, and the cell suspension was adjusted to an OD of 0.35 at 625 nm. A 2% aliquot of this suspension was inoculated into 196 mL of LB broth and incubated at 37 °C for 24 h. The CFS was collected by centrifugation at 10,000× g for 15 min at 4 °C. Bioactive compounds were then precipitated using stepwise ammonium sulfate precipitation at 25%, 50%, and 75% saturation levels. The active compounds were purified using cation exchange chromatography (CIEX) followed by reversed-phase chromatography (RPC), as described in our previous study. The purified compounds were concentrated using a refrigerated speed vacuum concentrator. The dried samples were reconstituted in deionized water and subjected to two-fold serial dilutions. An aliquot (100 µL) of each dilution was used to evaluate antimicrobial activity using the agar well diffusion method, employing E. coli TISTR 887 as the tested bacteria. The purification efficiency was assessed by calculating antimicrobial activity at each purification stage using the following equation [49]. Antimicrobial activity (arbitrary unit/mL; AU/mL)= 2^n × 1000/V where n represents the reciprocal of the highest two-fold dilution that produces a visible inhibition zone, and V denotes the volume of the sample in µL.

S. aureus TISTR 517 = test: microbe, parasite or virus in culture; type: cell-based, Staphylococcus aureus; settings: TISTR 517, 24 h
Experimental: as §1

MRSA Strain 2468 = test: microbe, parasite or virus in culture; type: cell-based, Staphylococcus aureus; settings: Strain 2468, 24 h
Experimental: as §1

K. pneumoniae TISTR 1383 [10] = type: cell-based, Klebsiella pneumoniae; settings: TISTR 1383, 24 h
Experimental: as §1

E. coli TISTR 887 [11] = settings: agar well diffusion vs untreated control, mean ± SD, three independent experiments
Experimental: as §3

P. aeruginosa TISTR 357 [12] = settings: agar well diffusion vs untreated control, mean ± SD, three independent experiments
Experimental: as §3

E. coli = test system: E. coli; set-up: method as in PMID 36912655; settings: cited from earlier work
[13] = peptide at 0.5× MIC, growth resumed thereafter until 24 h
[14] = peptide at 1× MIC, CAMHB, 37 °C, LOD 10 CFU/mL
[15] = peptide at 2× MIC, CAMHB, 37 °C, LOD 10 CFU/mL
[16] = peptide at 10× MIC adjusted to pH 3 (1 N HCl or 1 N NaOH), 37 °C, 3 h, then neutralized
[17] = peptide at 10× MIC adjusted to pH 5, 37 °C, 3 h, then neutralized
[18] = peptide at 10× MIC adjusted to pH 7, 37 °C, 3 h, then neutralized
[19] = peptide at 10× MIC adjusted to pH 9, 37 °C, 3 h, then neutralized
[20] = peptide at 10× MIC adjusted to pH 11, 37 °C, 3 h, then neutralized
[21] = peptide at 10× MIC incubated at 30 °C for 3 h
[22] = peptide at 10× MIC incubated at 50 °C for 3 h
[23] = peptide at 10× MIC incubated at 70 °C for 3 h
[24] = peptide at 10× MIC incubated at 90 °C for 3 h

## LALLVVVKVLKYVV [Na14 peptide]
P. aeruginosa TISTR 357 [1]
  MBC, P. aeruginosa TISTR 357: 2 µg/mL
  MIC, P. aeruginosa TISTR 357: 2 µg/mL
E. coli TISTR 887 [2]; [13]
  duration of temporary growth suppression, E. coli TISTR 887: 3 h
E. coli TISTR 887 [2]; [14]
  time at which bacteria were eliminated, E. coli TISTR 887: 12 h
E. coli TISTR 887 [2]; [15]
  time of complete eradication, E. coli TISTR 887: 6 h
P. aeruginosa TISTR 357 [3]; [13]
  duration of temporary growth suppression, P. aeruginosa TISTR 357: 3 h
P. aeruginosa TISTR 357 [3]; [14]
  time at which bacteria were eliminated, P. aeruginosa TISTR 357: 6 h
P. aeruginosa TISTR 357 [3]; [15]
  time of complete eradication, P. aeruginosa TISTR 357: 3 h
K. pneumoniae TISTR 1383 [4]; [16]
  Residual Antimicrobial Activity, K. pneumoniae TISTR 1383: 100.43 ± 0.37%
K. pneumoniae TISTR 1383 [4]; [17]
  Residual Antimicrobial Activity, K. pneumoniae TISTR 1383: 99.14 ± 1.35%
K. pneumoniae TISTR 1383 [4]; [18]
  Residual Antimicrobial Activity, K. pneumoniae TISTR 1383: 98.06 ± 2.34%
K. pneumoniae TISTR 1383 [4]; [19]
  Residual Antimicrobial Activity, K. pneumoniae TISTR 1383: 97.62 ± 2.08%
K. pneumoniae TISTR 1383 [4]; [20]
  Residual Antimicrobial Activity, K. pneumoniae TISTR 1383: 99.57 ± 2.08%
K. pneumoniae TISTR 1383 [4]; [21]
  Residual Antimicrobial Activity, K. pneumoniae TISTR 1383: 100.89 ± 0.39%
K. pneumoniae TISTR 1383 [4]; [22]
  Residual Antimicrobial Activity, K. pneumoniae TISTR 1383: 98.21 ± 4.09%
K. pneumoniae TISTR 1383 [4]; [23]
  Residual Antimicrobial Activity, K. pneumoniae TISTR 1383: 98.66 ± 4.07%
K. pneumoniae TISTR 1383 [4]; [24]
  Residual Antimicrobial Activity, K. pneumoniae TISTR 1383: 99.11 ± 1.39%
K. pneumoniae TISTR 1383 [5]; [13]
  duration of growth inhibition, K. pneumoniae TISTR 1383: up to 6 h
K. pneumoniae TISTR 1383 [5]; [14]
  time at which bacteria were eliminated, K. pneumoniae TISTR 1383: 9 h
K. pneumoniae TISTR 1383 [5]; [15]
  time of complete eradication, K. pneumoniae TISTR 1383: 6 h
E. coli TISTR 887 [6]
  gel overlay inhibition of E. coli TISTR 887: An inhibition zone was observed
[7]
  reduction of bacterial counts: more than 3 log units
E. coli TISTR 887 [8]
  MBC, E. coli TISTR 887: 2 µg/mL
  MIC, E. coli TISTR 887: 2 µg/mL
E. coli TISTR 887 [9]; purification balance sheet
  Specific Activity: 835.99 AU/mg
E. coli TISTR 887 [9]; two-fold serial dilutions, 100 µL, agar well diffusion, AU/mL = 2^n × 1000/V
  Arbitrary Activity: 320 AU/mL
S. aureus TISTR 517
  MBC, S. aureus TISTR 517: >128 µg/mL
  MIC, S. aureus TISTR 517: >128 µg/mL
MRSA Strain 2468
  MBC, MRSA strain 2468: >128 µg/mL
  MIC, MRSA strain 2468: >128 µg/mL
K. pneumoniae TISTR 1383 [10]
  MBC, K. pneumoniae TISTR 1383: 4 µg/mL
  MIC, K. pneumoniae TISTR 1383: 4 µg/mL
E. coli TISTR 887 [11]; [16]
  Residual Antimicrobial Activity, E. coli TISTR 887: 100.64 ± 2.30%
E. coli TISTR 887 [11]; [17]
  Residual Antimicrobial Activity, E. coli TISTR 887: 100.85 ± 1.95%
E. coli TISTR 887 [11]; [18]
  Residual Antimicrobial Activity, E. coli TISTR 887: 99.36 ± 2.93%
E. coli TISTR 887 [11]; [19]
  Residual Antimicrobial Activity, E. coli TISTR 887: 98.72 ± 1.28%
E. coli TISTR 887 [11]; [20]
  Residual Antimicrobial Activity, E. coli TISTR 887: 98.51 ± 1.33%
E. coli TISTR 887 [11]; [21]
  Residual Antimicrobial Activity, E. coli TISTR 887: 98.24 ± 1.67%
E. coli TISTR 887 [11]; [22]
  Residual Antimicrobial Activity, E. coli TISTR 887: 99.12 ± 1.02%
E. coli TISTR 887 [11]; [23]
  Residual Antimicrobial Activity, E. coli TISTR 887: 98.89 ± 2.03%
E. coli TISTR 887 [11]; [24]
  Residual Antimicrobial Activity, E. coli TISTR 887: 98.46 ± 1.55%
P. aeruginosa TISTR 357 [12]; [16]
  Residual Antimicrobial Activity, P. aeruginosa TISTR 357: 99.58 ± 0.74%
P. aeruginosa TISTR 357 [12]; [17]
  Residual Antimicrobial Activity, P. aeruginosa TISTR 357: 99.36 ± 1.69%
P. aeruginosa TISTR 357 [12]; [18]
  Residual Antimicrobial Activity, P. aeruginosa TISTR 357: 99.36 ± 3.18%
P. aeruginosa TISTR 357 [12]; [19]
  Residual Antimicrobial Activity, P. aeruginosa TISTR 357: 98.73 ± 2.30%
P. aeruginosa TISTR 357 [12]; [20]
  Residual Antimicrobial Activity, P. aeruginosa TISTR 357: 98.30 ± 2.24%
P. aeruginosa TISTR 357 [12]; [21]
  Residual Antimicrobial Activity, P. aeruginosa TISTR 357: 98.08 ± 1.11%
P. aeruginosa TISTR 357 [12]; [22]
  Residual Antimicrobial Activity, P. aeruginosa TISTR 357: 98.51 ± 0.37%
P. aeruginosa TISTR 357 [12]; [23]
  Residual Antimicrobial Activity, P. aeruginosa TISTR 357: 98.72 ± 0.64%
P. aeruginosa TISTR 357 [12]; [24]
  Residual Antimicrobial Activity, P. aeruginosa TISTR 357: 97.22 ± 1.62%

## brevicidine
E. coli; 0.5× to 2× MIC
  viability of E. coli at lower concentrations: remained viable
E. coli; peptide at 4× MIC
  time to eradication of E. coli: 1 h
